Measurements published in patent EP0878194A1, “REMEDIES OR PREVENTIVES FOR AIDS” (SANKYO COMPANY LIMITED, priority 1996, dated 1997).
pIC50: −log10 of the molar value. Like-named read-outs stand apart in the source and are kept apart here.

Tests used:
HIV-1IIIB strain [1] = experiment: In vitro combined test: survival of HIV-1IIIB-infected MT4 cells (MTT), isobologram and combination index; assay type: cell-based; settings: for pIC50: read-out: IC50 of DDI
HIV-1IIIB strain [2] = experiment: as above; assay type: cell-based; settings: read-out: IC50 of Preparation example 117
Protocol: Human T cell transformed cell line MT4 cells were cultured in RPMI 1640 medium containing 10% fetal bovine serum. HIV-1IIIB strain was obtained from HIV-1IIIB chronically infected Molt-4 cells as a supernatant fluid and used as the source of infectious viruses. The 50% tissue culture infectious dose (TCID50) of this fluid was determined by the endpoint titration methods.
The compound of Preparation example 117 was added in a serial dilution in the vertical direction to six 96-well microtiter plates. As a result of adding ZDV (Sigma) in a serial dilution in the horizontal direction, diluted solutions containing mixtures of various concentrations were prepared in 96-well microtiter plates (n=4).
MT4 cells were exposed to HIV-1IIIB fluid at a multiplicity of infection (m.o.i) 0.001 TCID50/ml at 37°C for 1 hour, then the cells were washed twice with PBS, and aliquots (5 x 10^4 cells/well) were placed in the plates containing various concentration of agent prepared as described above. After incubation for 6 days, the survival rate of infected MT4 cells was determined by the cell survival test using MTT (Sigma). Incidentally, in this test, the absorbance at O.D. 540 nm was measured by a plate reader, and the survival rate was determined by drawing a cell survival curve.
Analysis was performed according to the method of Barenbaum using an isobologram and combination index (CI) (Barenbaum, M.C., Pharmacol. Rev., 41, 93-141, 1989). In this case, the CI value was calculated by the general isobole equation. Determination of synergy, addition and […] was performed by isobologram curve patterns and/or statistical comparison of experimental CI values with CI values in typical additive effects (CI values when identical compounds are used in combination (0.85±0.11, Taylor, D.L. et al., Antiviral Chem. Chemother., 6, 143-152, 1995)).

## Nc1ccn([C@@H]2CS[C@H](CO)O2)c(=O)n1 [3TC, 4-amino-1-(2-hydroxymethyl-1,3-oxathioran-5-yl)-(1H)-pyrimidin-2-one, reference compound]
HIV-1IIIB strain [1]; Human immunodeficiency virus 1, MT4, alone (Preparation example 117 0), Table 33 experiment, read-out: IC50 of 3TC
  IC50: 0.6 mg/L
HIV-1IIIB strain [1]; Human immunodeficiency virus 1, MT4, with Preparation example 117 0.38 ng/ml, read-out: IC50 of 3TC
  IC50: 0.5 mg/L
HIV-1IIIB strain [1]; Human immunodeficiency virus 1, MT4, with Preparation example 117 0.78 ng/ml, read-out: IC50 of 3TC
  IC50: 0.52 mg/L
HIV-1IIIB strain [1]; Human immunodeficiency virus 1, MT4, with Preparation example 117 0.96 ng/ml, read-out: IC50 of 3TC
  IC50: 0.5 mg/L
HIV-1IIIB strain [1]; Human immunodeficiency virus 1, MT4, with Preparation example 117 1.56 ng/ml, read-out: IC50 of 3TC
  IC50: 0.43 mg/L
HIV-1IIIB strain [1]; Human immunodeficiency virus 1, MT4, with Preparation example 117 3.13 ng/ml, read-out: IC50 of 3TC
  IC50: 0.34 mg/L
HIV-1IIIB strain [1]; Human immunodeficiency virus 1, MT4, with Preparation example 117 4.57 ng/ml, read-out: IC50 of 3TC
  IC50: 0.25 mg/L
HIV-1IIIB strain [1]; Human immunodeficiency virus 1, MT4, with Preparation example 117 6.25 ng/ml, read-out: IC50 of 3TC
  IC50: 0.19 mg/L
HIV-1IIIB strain [1]; Human immunodeficiency virus 1, MT4, with Preparation example 117 8.0 ng/ml, read-out: IC50 of 3TC
  IC50: 0.125 mg/L
HIV-1IIIB strain [1]; Human immunodeficiency virus 1, MT4, with Preparation example 117 12.4 ng/ml, read-out: IC50 of 3TC
  IC50: 0.063 mg/L
HIV-1IIIB strain [1]; Human immunodeficiency virus 1, MT4, with Preparation example 117 12.7 ng/ml, read-out: IC50 of 3TC
  IC50: 0.0313 mg/L
HIV-1IIIB strain [1]; Human immunodeficiency virus 1, MT4, with Preparation example 117 13.0 ng/ml, read-out: IC50 of 3TC
  IC50: 0.0156 mg/L

## OC[C@@H]1CC[C@H](n2cnc3c(O)ncnc32)O1 [DDI, 2',3'-dideoxyinosine, reference compound]
HIV-1IIIB strain [1]; Human immunodeficiency virus 1, MT4, alone (Preparation example 117 0), Table 34 experiment
  pIC50: 5.27
HIV-1IIIB strain [1]; Human immunodeficiency virus 1, MT4, with Preparation example 117 0.39 ng/ml
  pIC50: 5.37
HIV-1IIIB strain [1]; Human immunodeficiency virus 1, MT4, with Preparation example 117 0.78 ng/ml
  pIC50: 5.36
HIV-1IIIB strain [1]; Human immunodeficiency virus 1, MT4, with Preparation example 117 1.56 ng/ml
  pIC50: 5.44
HIV-1IIIB strain [1]; Human immunodeficiency virus 1, MT4, with Preparation example 117 3.13 ng/ml
  pIC50: 5.55
HIV-1IIIB strain [1]; Human immunodeficiency virus 1, MT4, with Preparation example 117 3.85 ng/ml
  pIC50: 5.60
HIV-1IIIB strain [1]; Human immunodeficiency virus 1, MT4, with Preparation example 117 6.25 ng/ml
  pIC50: 5.78
HIV-1IIIB strain [1]; Human immunodeficiency virus 1, MT4, with Preparation example 117 7.70 ng/ml
  pIC50: 5.90
HIV-1IIIB strain [1]; Human immunodeficiency virus 1, MT4, with Preparation example 117 10.0 ng/ml
  pIC50: 6.20
HIV-1IIIB strain [1]; Human immunodeficiency virus 1, MT4, with Preparation example 117 10.5 ng/ml
  pIC50: 6.50
HIV-1IIIB strain [1]; Human immunodeficiency virus 1, MT4, with Preparation example 117 11.0 ng/ml
  pIC50: 6.81

## Cn1cc(C(=O)O)c(=O)c2cc(F)c(N3CCN(c4ncccn4)CC3)c(C(F)(F)F)c21 [Preparation example 117, 6-fluoro-8-trifluoromethyl-1,4-dihydro-4-oxo-1-methyl-7-[4-(2-pyrimidinyl)piperazin-1-yl]quinoline-3-carboxylic acid]
HIV-1IIIB strain [2]; Human immunodeficiency virus 1, MT4, with ZDV 1.56 ng/ml
  IC50: 0.0241 mg/L
HIV-1IIIB strain [2]; Human immunodeficiency virus 1, MT4, with ZDV 6.25 ng/ml
  IC50: 0.0111 mg/L
HIV-1IIIB strain [2]; Human immunodeficiency virus 1, MT4, with ZDV 11.6 ng/ml
  IC50: 0.00625 mg/L
HIV-1IIIB strain [2]; Human immunodeficiency virus 1, MT4, with ZDV 13.9 ng/ml
  IC50: 0.00313 mg/L
HIV-1IIIB strain [1]; Human immunodeficiency virus 1, MT4, alone (3TC 0), Table 33 experiment, read-out: IC50 of Preparation example 117
  IC50: 0.016 mg/L
HIV-1IIIB strain [1]; Human immunodeficiency virus 1, MT4, alone (DDI 0), Table 34 experiment, read-out: IC50 of Preparation example 117
  IC50: 0.014 mg/L
HIV-1IIIB strain [1]; Human immunodeficiency virus 1, MT4, alone (ZDV 0), Table 32 experiment, read-out: IC50 of Preparation example 117
  IC50: 0.039 mg/L
HIV-1IIIB strain [1]; Human immunodeficiency virus 1, MT4, with 3TC 0.0156 µg/ml, read-out: IC50 of Preparation example 117
  IC50: 0.013 mg/L
HIV-1IIIB strain [1]; Human immunodeficiency virus 1, MT4, with 3TC 0.0313 µg/ml, read-out: IC50 of Preparation example 117
  IC50: 0.0127 mg/L
HIV-1IIIB strain [1]; Human immunodeficiency virus 1, MT4, with 3TC 0.063 µg/ml, read-out: IC50 of Preparation example 117
  IC50: 0.0124 mg/L
HIV-1IIIB strain [1]; Human immunodeficiency virus 1, MT4, with 3TC 0.125 µg/ml, read-out: IC50 of Preparation example 117
  IC50: 0.008 mg/L
HIV-1IIIB strain [1]; Human immunodeficiency virus 1, MT4, with 3TC 0.19 µg/ml, read-out: IC50 of Preparation example 117
  IC50: 0.00625 mg/L
HIV-1IIIB strain [1]; Human immunodeficiency virus 1, MT4, with 3TC 0.25 µg/ml, read-out: IC50 of Preparation example 117
  IC50: 0.00457 mg/L
HIV-1IIIB strain [1]; Human immunodeficiency virus 1, MT4, with 3TC 0.34 µg/ml, read-out: IC50 of Preparation example 117
  IC50: 0.00313 mg/L
HIV-1IIIB strain [1]; Human immunodeficiency virus 1, MT4, with 3TC 0.43 µg/ml, read-out: IC50 of Preparation example 117
  IC50: 0.00156 mg/L
HIV-1IIIB strain [1]; Human immunodeficiency virus 1, MT4, with 3TC 0.50 µg/ml (Table 33, first line with 0.50), read-out: IC50 of Preparation example 117
  IC50: 0.00096 mg/L
HIV-1IIIB strain [1]; Human immunodeficiency virus 1, MT4, with 3TC 0.50 µg/ml (Table 33, second line with 0.50), read-out: IC50 of Preparation example 117
  IC50: 0.00038 mg/L
HIV-1IIIB strain [1]; Human immunodeficiency virus 1, MT4, with 3TC 0.52 µg/ml, read-out: IC50 of Preparation example 117
  IC50: 0.00078 mg/L
HIV-1IIIB strain [1]; Human immunodeficiency virus 1, MT4, with DDI 0.156 µM, read-out: IC50 of Preparation example 117
  IC50: 0.011 mg/L
HIV-1IIIB strain [1]; Human immunodeficiency virus 1, MT4, with DDI 0.313 µM, read-out: IC50 of Preparation example 117
  IC50: 0.0105 mg/L
HIV-1IIIB strain [1]; Human immunodeficiency virus 1, MT4, with DDI 0.63 µM, read-out: IC50 of Preparation example 117
  IC50: 0.01 mg/L
HIV-1IIIB strain [1]; Human immunodeficiency virus 1, MT4, with DDI 1.25 µM, read-out: IC50 of Preparation example 117
  IC50: 0.0077 mg/L
HIV-1IIIB strain [1]; Human immunodeficiency virus 1, MT4, with DDI 1.67 µM, read-out: IC50 of Preparation example 117
  IC50: 0.00625 mg/L
HIV-1IIIB strain [1]; Human immunodeficiency virus 1, MT4, with DDI 2.50 µM, read-out: IC50 of Preparation example 117
  IC50: 0.00385 mg/L
HIV-1IIIB strain [1]; Human immunodeficiency virus 1, MT4, with DDI 2.80 µM, read-out: IC50 of Preparation example 117
  IC50: 0.00313 mg/L
HIV-1IIIB strain [1]; Human immunodeficiency virus 1, MT4, with DDI 3.65 µM, read-out: IC50 of Preparation example 117
  IC50: 0.00156 mg/L
HIV-1IIIB strain [1]; Human immunodeficiency virus 1, MT4, with DDI 4.27 µM, read-out: IC50 of Preparation example 117
  IC50: 0.00039 mg/L
HIV-1IIIB strain [1]; Human immunodeficiency virus 1, MT4, with DDI 4.38 µM, read-out: IC50 of Preparation example 117
  IC50: 0.00078 mg/L
HIV-1IIIB strain [1]; Human immunodeficiency virus 1, MT4, with ZDV 0.78 ng/ml, read-out: IC50 of Preparation example 117
  IC50: 0.028 mg/L
HIV-1IIIB strain [1]; Human immunodeficiency virus 1, MT4, with ZDV 1.20 ng/ml, read-out: IC50 of Preparation example 117
  IC50: 0.025 mg/L
HIV-1IIIB strain [1]; Human immunodeficiency virus 1, MT4, with ZDV 3.13 ng/ml, read-out: IC50 of Preparation example 117
  IC50: 0.0162 mg/L
HIV-1IIIB strain [1]; Human immunodeficiency virus 1, MT4, with ZDV 5.60 ng/ml, read-out: IC50 of Preparation example 117
  IC50: 0.0125 mg/L
HIV-1IIIB strain [1]; Human immunodeficiency virus 1, MT4, with ZDV 12.5 ng/ml, read-out: IC50 of Preparation example 117
  IC50: 0.0053 mg/L
HIV-1IIIB strain [1]; Human immunodeficiency virus 1, MT4, with ZDV 14.5 ng/ml, read-out: IC50 of Preparation example 117
  IC50: 0.00156 mg/L
